In the experiment the target is recombinant human SAE enzyme (Homo sapiens (Human), UniProt Q9UBT2). As to the kind of experiment: SAE HTRF enzyme assay. Format: biochemical. The settings on record: for inhibition at 0.111 µM / Percent Inhibition: Concentration 0.111 μM; for inhibition at 0.111 µM: read-out: Percent Inhibition; for IC50: class symbols A/B/C. The gist of the method:
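This HTRF format monitors Sumo-Flag–Ubc9-GST thioester formation catalysed by 0.11 nM human SAE with 0.5 μM ATP over 105 min at 24° C. Inhibition is expressed at a single concentration or as IC50.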
(In general: TR-FRET usually uses a lanthanide donor and a delayed reading to cut background.)

recombinant human SAE enzyme, sequence (Q9UBT2 whole entry): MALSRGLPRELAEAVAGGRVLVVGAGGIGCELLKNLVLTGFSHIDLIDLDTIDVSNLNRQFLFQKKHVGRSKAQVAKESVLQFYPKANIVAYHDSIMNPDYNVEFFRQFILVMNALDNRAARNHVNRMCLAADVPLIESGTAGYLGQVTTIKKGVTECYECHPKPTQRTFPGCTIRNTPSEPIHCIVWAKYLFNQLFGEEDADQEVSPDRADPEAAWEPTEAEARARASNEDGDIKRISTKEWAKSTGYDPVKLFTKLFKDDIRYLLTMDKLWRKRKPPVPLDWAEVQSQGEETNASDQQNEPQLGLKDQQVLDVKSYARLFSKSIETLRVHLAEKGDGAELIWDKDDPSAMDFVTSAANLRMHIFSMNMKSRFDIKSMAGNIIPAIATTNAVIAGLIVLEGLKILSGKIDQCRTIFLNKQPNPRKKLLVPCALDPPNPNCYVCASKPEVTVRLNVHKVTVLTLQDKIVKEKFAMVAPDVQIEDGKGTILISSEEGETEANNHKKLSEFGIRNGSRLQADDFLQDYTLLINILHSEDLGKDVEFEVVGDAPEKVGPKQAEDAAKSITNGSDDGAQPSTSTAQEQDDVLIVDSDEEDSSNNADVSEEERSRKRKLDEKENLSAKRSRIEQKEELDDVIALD
recombinant human SAE enzyme, sequence (Q9UBE0 whole entry partner): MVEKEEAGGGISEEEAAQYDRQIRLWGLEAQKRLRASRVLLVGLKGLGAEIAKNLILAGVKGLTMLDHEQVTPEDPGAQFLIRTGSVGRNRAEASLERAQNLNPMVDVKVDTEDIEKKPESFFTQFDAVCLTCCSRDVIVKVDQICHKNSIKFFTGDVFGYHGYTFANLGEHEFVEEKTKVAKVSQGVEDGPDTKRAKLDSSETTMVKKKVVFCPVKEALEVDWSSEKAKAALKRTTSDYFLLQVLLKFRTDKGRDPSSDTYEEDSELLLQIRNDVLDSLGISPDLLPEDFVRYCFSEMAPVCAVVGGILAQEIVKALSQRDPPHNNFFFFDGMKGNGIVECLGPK

As for `Cc1cccc(Cc2cc(C(=O)c3cncnc3N[C@@H]3C[C@H](COS(N)(=O)=O)[C@@H](O)[C@@H]3F)oc2C)c1` [I-65, [(1R,2R,3R,4R)-3-fluoro-2-hydroxy-4-({5-[5-methyl-4-(3-methylbenzyl)-2-furoyl]pyrimidin-4-yl}amino)cyclopentyl]methyl sulfamate], the inhibition (commonly the drop in the measured response relative to a control, in per cent) at 0.111 µM is 99% and the IC50 (commonly the concentration that inhibits the measured activity by half) is less than 10 nM.

With `NS(=O)(=O)OC[C@H]1C[C@@H](Nc2ncncc2C(=O)c2cc(Cc3ccc(Cl)o3)cs2)C[C@@H]1O` [I-66, [(1R,2S,4R)-4-{[5-({4-[(5-chloro-2-furyl)methyl]-2-thienyl}carbonyl)pyrimidin-4-yl]amino}-2-hydroxycyclopentyl]methyl sulfamate], the inhibition at 0.111 µM was found to be 98% and the IC50 is less than 10 nM.

With `C#Cc1cccc(Cc2csc(C(=O)c3cncnc3N[C@@H]3C[C@H](COS(N)(=O)=O)[C@@H](O)C3)c2)c1` [I-70, {(1R,2S,4R)-4-[(5-{[4-(3-Ethynylbenzyl)-2-thenyl]carbonyl}pyrimidin-4-yl)amino-2-hydroxycyclopentyl}methyl sulfamate], the “Percent Inhibition” value was found to be 98 and the IC50 was less than 10 nM.

As for `NS(=O)(=O)OC[C@H]1C[C@@H](Nc2ncncc2C(=O)c2cc(Cc3cccc(Cl)n3)cs2)C[C@@H]1O` [I-71, [(1R,2S,4R)-4-{[5-({4-[(6-chloropyridin-2-yl)methyl]-2-thienyl}carbonyl)pyrimidin-4-yl]amino}-2-hydroxycyclopentyl]methyl sulfamate], the inhibition at 0.111 µM is 98%.

As to `NS(=O)(=O)OC[C@H]1C[C@@H](Nc2ncncc2C(=O)c2cc(Cc3cccc(Cl)c3)c(Cl)o2)C[C@@H]1O` [I-72, [(1R,2S,4R)-4-({5-[5-chloro-4-(3-chlorobenzyl)-2-furoyl]pyrimidin-4-yl}amino)-2-hydroxycyclopentyl]methyl sulfamate], the inhibition at 0.111 µM was 98% and the IC50 was less than 10 nM.

For the compound `Cc1cnn(Cc2csc(C(=O)c3cncnc3N[C@@H]3C[C@H](COS(N)(=O)=O)[C@@H](O)C3)c2)c1` [I-74, [(1R,2S,4R)-2-hydroxy-4-{[5-({4-[(4-methyl-1H-pyrazol-1-yl)methyl]-2-thienyl}carbonyl)pyrimidin-4-yl]amino}cyclopentyl]methyl sulfamate], the inhibition at 0.111 µM is 98% and the IC50 was less than 10 nM.

Take `Cc1oc(C(=O)c2cncnc2N[C@@H]2C[C@H](COS(N)(=O)=O)[C@@H](O)[C@@H]2F)cc1Cc1cccc(Cl)c1` [I-75, [(1R,2R,3R,4R)-4-({5-[4-(3-chlorobenzyl)-5-methyl-2-furoyl]pyrimidin-4-yl}amino)-3-fluoro-2-hydroxycyclopentyl]methyl sulfamate]: the inhibition at 0.111 µM is 98% and the IC50 is less than 10 nM.

`NS(=O)(=O)OC[C@H]1C[C@@H](Nc2ncncc2C(=O)c2cc(Cc3cccc(Br)c3)c(Cl)s2)[C@H](O)[C@@H]1O` [I-76, {(1R,2R,3S,4R)-4-[(5-{[4-(3-bromobenzyl)-5-chloro-2-thienyl]carbonyl}pyrimidin-4-yl)amino]-2,3-dihydroxycyclopentyl}methyl sulfamate]: the inhibition at 0.111 µM worked out at 99% and the IC50 is less than 10 nM.

Take `CN(C)Cc1sc(C(=O)c2cncnc2N[C@@H]2C[C@H](COS(N)(=O)=O)[C@@H](O)C2)cc1Cc1cccc(Cl)c1` [I-77, [(1R,2S,4R)-4-{[5-({4-(3-chlorobenzyl)-5-[(dimethylamino)methyl]-2-thienyl}carbonyl)pyrimidin-4-yl]amino}-2-hydroxycyclopentyl]methyl sulfamate]: the inhibition at 0.111 µM was determined as 98% and the IC50 is less than 10 nM.

With `Cc1cnn(Cc2cc(C(=O)c3cncnc3N[C@@H]3C[C@H](COS(N)(=O)=O)[C@@H](O)C3)sc2C)c1` [I-78, [(1R,2S,4R)-2-hydroxy-4-{[5-({5-methyl-4-[(4-methyl-1H-pyrazol-1-yl)methyl]-2-thienyl}carbonyl)pyrimidin-4-yl]amino}cyclopentyl]methyl sulfamate], the inhibition at 0.111 µM was determined as 98%.

Turning to `NS(=O)(=O)OC[C@H]1C[C@@H](Nc2ncncc2C(=O)c2cc(Cc3cccc(Cl)c3)co2)C[C@@H]1O` [I-79, [(1R,2S,4R)-4-({5-[4-(3-chlorobenzyl)-2-furoyl]pyrimidin-4-yl}amino)-2-hydroxycyclopentyl]methyl sulfamate], the inhibition at 0.111 µM is 97%.

For `COc1ccccc1OCc1csc(C(=O)c2cncnc2N[C@@H]2C[C@H](COS(N)(=O)=O)[C@@H](O)C2)c1` [I-80, [(1R,2S,4R)-2-hydroxy-4-{[5-({4-[(2-methoxyphenoxy)methyl]-2-thienyl}carbonyl)pyrimidin-4-yl]amino}cyclopentyl]methyl sulfamate], the inhibition at 0.111 µM came to 98% and the IC50 was less than 10 nM.

Regarding `CSc1cccc(Cc2csc(C(=O)c3cncnc3N[C@@H]3C[C@H](COS(N)(=O)=O)[C@@H](O)C3)c2)c1` [I-81, [(1R,2S,4R)-2-hydroxy-4-{[5-({4-[3-(methylsulfanyl)benzyl]-2-thienyl}carbonyl)pyrimidin-4-yl]amino}cyclopentyl]methyl sulfamate], the inhibition at 0.111 µM was found to be 98% and the IC50 was less than 10 nM.

Regarding `NS(=O)(=O)OC[C@H]1C[C@@H](Nc2ncncc2C(=O)c2ccc(Cc3cccc(Br)c3)o2)C[C@@H]1O` [I-82, [(1R,2S,4R)-4-({5-[5-(3-bromobenzyl)-2-furoyl]pyrimidin-4-yl}amino)-2-hydroxycyclopentyl]methyl sulfamate], the inhibition at 0.111 µM is 99%.

For the compound `NS(=O)(=O)OC[C@H]1C[C@@H](Nc2ncncc2C(=O)c2cc(CN3CCc4ccc(Cl)cc43)cs2)C[C@@H]1O` [I-83, [(1R,2S,4R)-4-{[5-({4-[(6-chloro-2,3-dihydro-1H-indol-1-yl)methyl]-2-thienyl}carbonyl)pyrimidin-4-yl]amino}-2-hydroxycyclopentyl]methyl sulfamate], the inhibition at 0.111 µM stood at 98% and the IC50 was less than 10 nM.

For the compound `NS(=O)(=O)OC[C@H]1C[C@@H](Nc2ncncc2C(=O)c2cc(Cc3cccc(Cl)c3F)cs2)C[C@@H]1O` [I-84, {(1R,2S,4R)-4-[(5-{[4-(3-chloro-2-fluorobenzyl)-2-thienyl]carbonyl}pyrimidin-4-yl)amino]-2-hydroxycyclopentyl}methyl sulfamate], the inhibition at 0.111 µM was found to be 98% and the IC50 was less than 10 nM.

As for `NS(=O)(=O)OC[C@H]1C[C@@H](Nc2ncncc2C(=O)c2ccc(Cc3ccccc3)o2)[C@H](O)[C@@H]1O` [I-87, [(1R,2R,3S,4R)-4-{[5-(5-benzyl-2-furoyl)pyrimidin-4-yl]amino}-2,3-dihydroxycyclopentyl]methyl sulfamate], the inhibition at 0.111 µM was 94%.

As for `NS(=O)(=O)OC[C@H]1C[C@@H](Nc2ncncc2C(=O)c2cc(Cc3ccccc3)cs2)C[C@@H]1O` [I-88, [(1R,2S,4R)-4-({5-[(4-benzyl-2-thienyl)carbonyl]pyrimidin-4-yl}amino)-2-hydroxycyclopentyl]methyl sulfamate], the inhibition at 0.111 µM is 98% and the IC50 was less than 10 nM.

For `NS(=O)(=O)OC[C@H]1C[C@@H](Nc2ncncc2C(=O)c2cc(Cc3cccc(Cl)c3)c(F)s2)C[C@@H]1O` [I-89, {(1R,2S,4R)-4-[(5-{[4-(3-chlorobenzyl)-5-fluoro-2-thienyl]carbonyl}pyrimidin-4-yl)amino]-2-hydroxycyclopentyl}methyl sulfamate], the inhibition at 0.111 µM turned out to be 98% and the IC50 was less than 10 nM.

For `NS(=O)(=O)OC[C@H]1C[C@@H](Nc2ncncc2C(=O)c2cc(Cn3ccc4cccnc43)cs2)C[C@@H]1O` [I-92, {(1R,2S,4R)-2-hydroxy-4-[(5-{[4-(1H-pyrrolo[2,3-b]pyridin-1-ylmethyl)-2-thienyl]carbonyl}pyrimidin-4-yl)amino]cyclopentyl}methyl sulfamate], the inhibition at 0.111 µM worked out at 98% and the IC50 is less than 10 nM.

On to `NS(=O)(=O)OC[C@H]1C[C@@H](Nc2ncncc2C(=O)c2ccc(Cc3cccc(Cl)c3)o2)C[C@@H]1O` [I-93, [(1R,2S,4R)-4-({5-[5-(3-chlorobenzyl)-2-furoyl]pyrimidin-4-yl}amino)-2-hydroxycyclopentyl]methyl sulfamate], for which the inhibition at 0.111 µM is 98%.

With `NS(=O)(=O)OC[C@H]1C[C@@H](Nc2ncncc2C(=O)c2cc([S@+]([O-])c3cccc(Cl)c3)c(Cl)s2)C[C@@H]1O` [I-94, [(1R,2S,4R)-4-({[5-({5-Chloro-4-[(R)-(3-chlorophenyl)sulfinyl]-2-thienyl}carbonyl)pyrimidin-4-yl]amino}-2-hydroxycyclopentyl]methyl sulfamate and [(1R,2S,4R)-4-{[5-({5-chloro-4-[(S)-(3-chlorophenyl)sulfinyl]-2-thienyl}carbonyl)pyrimidin-4-yl]amino}-2-hydroxycyclopentyl]methyl sulfamate], the “Percent Inhibition” value was 98 and the IC50 is less than 10 nM.

On to `NS(=O)(=O)OC[C@H]1C[C@@H](Nc2ncncc2C(=O)c2cc(Cc3ccccc3)c(Cl)s2)C[C@@H]1O` [I-96, [(1R,2S,4R)-4-({5-[(4-benzyl-5-chloro-2-thienyl)carbonyl]pyrimidin-4-yl}amino)-2-hydroxycyclopentyl]methyl sulfamate], for which the inhibition at 0.111 µM amounted to 97%.

In the case of `NS(=O)(=O)OC[C@H]1C[C@@H](Nc2ncncc2C(=O)c2cc(Cc3cccc(F)c3)cs2)C[C@@H]1O` [I-97, {(1R,2S,4R)-4-[(5-{[4-(3-fluorobenzyl)-2-thienyl]carbonyl}pyrimidin-4-yl)amino]-2-hydroxycyclopentyl}methyl sulfamate], the inhibition at 0.111 µM came to 97%.

For the compound `NS(=O)(=O)OC[C@H]1C[C@@H](Nc2ncncc2C(=O)c2cc(COc3ccccc3Br)cs2)C[C@@H]1O` [I-98, [(1R,2S,4R)-4-{[5-({4-[(2-bromophenoxy)methyl]-2-thienyl}carbonyl)pyrimidin-4-yl]amino}-2-hydroxycyclopentyl]methyl sulfamate], the inhibition at 0.111 µM turned out to be 97% and the IC50 is less than 10 nM.

Values taken from US10780090B2, “Heteroaryl compounds useful as inhibitors of SUMO activating enzyme” (Millennium Pharmaceuticals, Inc., priority 2014, dated 2020).
